Reference: PMC10630888, “Nuclear ERK1/2 signaling potentiation enhances neuroprotection and cognition via Importinα1/KPNA2” (EMBO Molecular Medicine, 2023)
Several values for one entry are separate records, joined by “and”; a condition that tells them apart may be missing. Equal entries are not always repeated.

Experiments:
Assay type in all cases: in vivo, mouse
[1] = tested on: pMSK-1; experiment: Striatal pMSK-1 immunohistochemistry 1 h after single injection; conditions: single injection 20 mg/kg i.p., individual mice
Protocol: (§1) Immunohistochemistry was performed as described in Papale et al ([2016]). Briefly, 1 h after blocking in 5% normal goat serum and 0.1% Triton X‐100 solution, free‐floating sections were incubated overnight at 4°C with one of the following primary antibodies: anti‐phospho‐p44/42 MAP kinase (Thr202/Tyr204) (1:200, Cell Signaling Technology #9101), anti‐phospho–Elk‐1 (Ser383) (1:100, Cell Signaling #9181), anti‐phospho‐Kv4.2 (Thr607)‐R (1:100, Santa Cruz sc22254‐R), anti‐phospho‐MSK‐1 (1:100 Cell Signaling Technology #9595), anti‐phospho‐MEK1/2 (Ser218/222) (1:100, sc‐7995 Santa Cruz Biotechnology), c‐Fos (1:100, sc‐52 Santa Cruz Biotechnology), tyrosine Hydroxylase (monoclonal 1:1,000, Sigma Aldrich, Italy) and anti‐DARPP‐32 (H3) (1:100, Santa Cruz Biotechnology, #sc‐271111) overnight at 4°C. […]
(§2) For in vivo immunohistochemistry experiments, images were acquired from the dorsal striatum using a Leica DM IRB microscope under a 20× objective. The number of p‐ERK, p‐MSK‐1, p‐ELK, p‐MEK‐1, p‐VG K+, c‐Fos, and DARPP‐32 positive cells was counted in 2–3 consecutive sections per mouse, bilaterally and averaged across the sections using the ImageJ software by a blind investigator to the condition. Estimation of nigral cell loss was assessed by quantifying the number of TH‐immunopositive neurons of the SNc in 360 μm‐spaced sections for each animal.

[2] = tested on: c-Fos; experiment: Striatal c-Fos immunohistochemistry 1 h after single injection; conditions: single injection 20 mg/kg i.p., individual mice
Protocol: as §1, §2

[3] = tested on: MEK-1 phosphorylation; experiment: Striatal phospho-MEK-1 immunohistochemistry 1 h after single injection; conditions: single injection 20 mg/kg i.p., individual mice
Protocol: as §1, §2

[4] = tested on: voltage-gated K+ (Kv4.2) channel phosphorylation; experiment: Striatal phospho-Kv4.2 immunohistochemistry 1 h after single injection; conditions: single injection 20 mg/kg i.p., individual mice
Protocol: as §1, §2

[5] = tested on: 3-NP-induced striatal apoptosis; experiment: TUNEL assay in striatum, 3-NP model with RB5; conditions: 7 days, individual mice
Protocol: The detection of apoptosis on cultured cells or tissue sections was carried out using the DeadEnd™ Colorimetric TUNEL System kit (Promega). Cultured cells were fixed in 4% PFA for 15 min at room temperature before undergoing TUNEL staining. Tissue sections were obtained from mice perfused with 4% PFA. Brains were subsequently stored in 30% sucrose overnight and cut into 35 μm‐thick slices using a freezing microtome. Slices were mounted on slides and processed for TUNEL staining. TUNEL was performed following the manufacturer's instructions. Briefly, slides were immersed in PBS for 5 min RT and then incubated for 25 min in a […] Proteinase K solution. Then, the slides were rinsed in 1× PBS, re‐fixed in 4% PFA for 5 min, and rinsed twice with 1× PBS. […] of equilibration buffer were added to each tissue section for 5–10 min followed by 1 h of incubation at 37°C in a humidified chamber with […] of rTdT reaction mix. After that, slides were immersed in 2× SSC solution in a Coplin jar for 15 min and washed twice in PBS 1× for 5 min. The endogenous peroxidase activity was blocked with 0.3% hydrogen peroxide for 5 min. The slides were rinsed twice in 1× PBS for 5 min and incubated for 30 min with Streptavidin HRP solution and finally DAB substrate was added to react for 10 min. A light microscope was used to acquire four representative fields per slide from cultured cells and 3–4 representative slices per mouse from all experimental groups. The number of TUNEL positive cells was counted using ImageJ software.
3‐NP (3‐Nitropropionic acid) (N5636, Sigma) was dissolved in distilled water to a concentration of 50 mg/ml (pH 7.4) and passed through a 0.2‐μm filter and kept at −80°C until use. The 3‐NP solution was administered i.p. once daily at a dose of 50 mg/kg either for 21 consecutive days in the LV‐injected mice or for 7 days in combination with RB5.

[6] = tested on: procedural learning (nose poke responses); experiment: 9-hole operant boxes, FR1 nose poke, zQ175 mice with RB5; conditions: for FR1 nose poke, AUC analysis: 20 mg/kg i.p. 1 h before session; for Nose poke responses (FR1): 9 days of treatment, 20 mg/kg i.p.
Protocol: Operant testing was conducted in 16 9‐hole operant boxes as previously described (Yhnell et al, [2016a]). Each operant box contains a horizontal array of nine holes with infrared beams localized to the front of each hole to detect nose pokes. A peristaltic pump delivers liquid reinforcement (strawberry milk) into a magazine at the front of the box.
A week before starting the training, mice underwent water restriction for 18 h/day and were kept under this regimen throughout the experimental procedures. Mice were taught to nose poke on a simple fixed ratio (FR1) schedule of reinforcement: to obtain reward, mice were required to respond to a stimulus light in the central hole via a single nose poke. zQ175 mice were trained daily on this program for 20‐min sessions for 10 days (training phase). Once trained, animals were subdivided into four groups and injected with RB5 or scramble (20 mg/kg, i.p.) peptides 1 h before being tested on the FR1 schedule for the other 9 days. At the end of the behavioral tests, mice were perfused with 4% PFA, and brains were processed for IHC or IF.

[7] = peptide 20 mg/kg i.p. twice a day plus 3-NP 50 mg/kg i.p. once a day
[8] = peptide 20 mg/kg i.p. twice a day plus saline

Substance	pMSK-1 positive cells in striatum [1]	c-Fos positive cells in striatum [2]	p-MEK-1 positive cells in striatum [3]	phospho-Kv4.2 positive cells in striatum [4]	TUNEL positive cells in striatum [5, 7]	TUNEL positive cells in striatum [5, 8]	FR1 nose poke, AUC analysis ([6]; WT females, treatment day 1)	FR1 nose poke, AUC analysis ([6]; WT females, treatment day 2)	FR1 nose poke, AUC analysis ([6]; WT females, treatment day 3)	FR1 nose poke, AUC analysis ([6]; WT females, treatment day 4)	FR1 nose poke, AUC analysis ([6]; WT females, treatment day 5)	FR1 nose poke, AUC analysis ([6]; WT females, treatment day 6)	FR1 nose poke, AUC analysis ([6]; WT females, treatment day 7)	FR1 nose poke, AUC analysis ([6]; WT females, treatment day 8)	FR1 nose poke, AUC analysis ([6]; WT females, treatment day 9)	FR1 nose poke, AUC analysis ([6]; zQ175 females, treatment day 1)	FR1 nose poke, AUC analysis ([6]; zQ175 females, treatment day 2)	FR1 nose poke, AUC analysis ([6]; zQ175 females, treatment day 3)	FR1 nose poke, AUC analysis ([6]; zQ175 females, treatment day 4)	FR1 nose poke, AUC analysis ([6]; zQ175 females, treatment day 5)	other results
SCR: ineffective Scramble version of RB5 containing a TAT sequence (GRKKRRQRRRPPRVGPGVPEGVGVAVFGVKEPGQTGDVGPVGE) [reference compound]	614.286 and 328.571 and 409.524 and 680.952 and 885.714 and 485.714 and 509.524 and 319.048 and 571.429 and 461.905 and 338.095 and 209.524 and 466.667 and 700 and 519.048	461.905 and 395.238 and 423.81 and 380.952 and 419.048 and 352.381 and 438.095 and 376.19 and 604.762 and 404.762 and 590.476 and 552.381 and 490.476 and 290.476	385.714 and 492.857 and 471.429 and 371.429 and 478.571 and 335.714 and 407.143 and 328.571 and 342.857 and 257.143 and 442.857 and 264.286 and 542.857	690.476 and 419.048 and 495.238 and 514.286 and 895.238 and 652.381 and 457.143 and 633.333 and 452.381 and 780.952 and 561.905 and 657.143 and 738.095 and 604.762	360.976 and 175.61 and 179.533 and 215.44 and 403.95 and 136.585 and 370.732	87.8049 and 58.5366 and 107.72 and 89.7666 and 104.728 and 165.854	426	494	529	551	606	632	637	652	625	79.44	88.63	81.25	82.51	86.56	FR1 nose poke, AUC analysis ([6]; zQ175 females, treatment day 6): 92.15; FR1 nose poke, AUC analysis ([6]; zQ175 females, treatment day 7): 90.83; FR1 nose poke, AUC analysis ([6]; zQ175 females, treatment day 8): 92.99; FR1 nose poke, AUC analysis ([6]; zQ175 females, treatment day 9): 83.24
GRKKRRQRRRPPQGGGGGEPRRTEGVGPGVPGEVEMVKGQPFDV [RB5, six D-amino acids, acetylated N-terminus]	selectively activated and 947.619 and 433.333 and 542.857 and 395.238 and 690.476 and 838.095 and 642.857 and 1019.05 and 728.571 and 490.476 and 328.571 and 904.762 and 1233.33 and 671.429	selectively activated and 771.429 and 809.524 and 757.143 and 976.19 and 723.81 and 795.238 and 914.286 and 857.143 and 814.286 and 852.381 and 738.095 and 761.905 and 961.905 and 728.571	did not influence the phosphorylation and 335.714 and 385.714 and 421.429 and 400 and 314.286 and 271.429 and 307.143 and 464.286 and 371.429 and 428.571 and 392.857 and 285.714 and 500	did not influence the phosphorylation and 523.81 and 680.952 and 528.571 and 533.333 and 561.905 and 538.095 and 490.476 and 742.857 and 552.381 and 633.333 and 638.095 and 547.619	significantly reduced neuronal death and 87.8049 and 8.8692 and 39.0244 and 107.72 and 134.65 and 179.533 and 163.212 and 136.585 and 117.073	29.2683 and 60.9756 and 89.7666 and 81.606 and 71.8133 and 143.627 and 134.65 and 43.3604	696.2	784.67	771.56	796.53	786.86	819.62	786.91	844.4	832.09	293.69	300.15	373.09	374.4	384.76	Nose poke responses (FR1) ([6]; WT and zQ175 females): significantly enhanced responses; FR1 nose poke, AUC analysis ([6]; zQ175 females, treatment day 6): 413.69; FR1 nose poke, AUC analysis ([6]; zQ175 females, treatment day 7): 454.91; FR1 nose poke, AUC analysis ([6]; zQ175 females, treatment day 8): 338.07; FR1 nose poke, AUC analysis ([6]; zQ175 females, treatment day 9): 338.07; Nose poke responses (FR1) ([6]; zQ175 males): did not alter responses
